Literature values as cited in patent US8071623B2, “Amide substituted indazoles as poly(ADP-ribose)polymerase(PARP) inhibitors” (Instituto di Ricerche di Biologia Molecolare P. Angeletti …, priority 2007, dated 2011).

Tested on: ischemia and reperfusion of the heart
Conditions: rabbits

Compound | reduced infarct size (single injection 1 mg/kg) | reductions in infarct size in the heart (single injection 10 mg/kg, one minute before occlusion or one minute before reperfusion)
Oc1cccc2c(O)nccc12 [1,5-dihydroxyisoquinoline] | 38-48% | 
NC(=O)c1cccc(N)c1 [3-amino-benzamide] |  | 32-42%
